Ends that are not written are not given here.
Assays:
[1] = test system: human skin kept under survival conditions; experiment: Histological evaluation of the average surface area of the capillaries in human skin kept under survival conditions, stimulated with substance P; assay type: cell-based; details: for effect on surface area / dilatation of the dermal capillaries (in words): compared with substance P-treated skin and control skin; for Percentage of dilated dermal capillaries: substance P 10 μM in culture medium, niacinamide 0.5%, dipeptide 0.1% (b140 prints the reverse), mean +/− spread
Procedure: The activity of each of the active agents and of the combination thereof is evaluated in a model of human skin kept under survival conditions. After several hours of re-equilibration of the skin with culture medium (antibiotic+SVF), the culture medium is renewed and substance P at 10 (M, with or without each of the active agents or the combination thereof, is (are) added to the culture medium. […] Morphometric analysis of the surface area (μm^2) occupied by the lumen of the vessels is carried out by microscopic observation from sections: the skin fragments are fixed in Bouin's solution and embedded in paraffin and then stained with haemalun-eosine. The vascular dilatation is evaluated by counting the number of dilated vessels over the entire histological section (16 fields at 40×magnification). This analysis makes it possible to determine the average surface area (μm^2) occupied by the vessels in the dermis.

[2] = test system: human skin kept under survival conditions; experiment: Histological evaluation of dermal oedema (semi-quantitative score) on the skin sections of Example 1; assay type: cell-based; details: for effect on dermal oedema (in words): compared with substance P-stimulated skin and control skin; for Dermal oedema score (0-3): human skin explant, substance P 10 μM, niacinamide 0.5%, dipeptide 0.1% (b140 prints the reverse), mean +/− spread
Procedure: The activity of each of the active agents and of the combination thereof is evaluated in a model of human skin kept under survival conditions. […] Using the sections prepared in Example 1, the oedema is evaluated by means of semi-quantitative scores: • score 0: no oedema • score 1: very slight oedema • score 2: moderate oedema • score 3: considerable oedema

Compound	effect on surface area / dilatation of the dermal capillaries (in words) [1]	Percentage of dilated dermal capillaries ([1]; human skin explant)	effect on dermal oedema (in words) [2]	Dermal oedema score (0-3) [2]	increase in the surface area compared with the normal skin ([1]; substance P at 10 μM) [%]	average surface area occupied by the vessels in the dermis ([1]; substance P at 10 μM, human skin explant)	increase in the oedema score ([2]; treatment with substance P versus control skin) [%]	oedema score ([2]; treatment with substance P, score 0-3)
NC(=O)c1cccnc1 [niacinamide, pyridine-3-carboxamide]	back to a state corresponding to the control	108 +/− 27.6	back to a state corresponding to the control	1.03 +/− 0.64	–	–	–	–
N-acetyl-tyrosine-arginine-decahexyl ester [dipeptide]	back to a state corresponding to the control	103.16 +/− 34	back to a state corresponding to the control	1 +/− 0.6	–	–	–	–
substance P: polypeptide (undecapeptide) produced and released by a nerve ending; used at 10 μM as stimulus (RPKPQQFFGLM; ends and bridges not checked; UniProt P20366 58-68, looked up)	–	161.6 +/− 56.6	–	1.9 +/− 0.7	63	161.6+/−56.6 μm^2	121	1.9+/−0.64

Source: patent US8858968B2, “Use of tyrosine-arginine dipeptide and niacinamide as substance P antagonist” (L'Oreal, priority 2005, dated 2014)
